Measured values published in ChEMBL document CHEMBL3991601, “The target landscape of clinical kinase drugs” (Science, 2017).
Calls of active or inactive are those of the source. Cut-off read from the data, not from the text of the source, for most assays here: actives have a measured Kd and inactives only a lower limit.

How the values were obtained:
[1] = molecular target: Aurora kinase B (Homo sapiens, UniProt Q96GD4)
[2] = molecular target: STE20-like serine/threonine-protein kinase (Homo sapiens, UniProt Q9H2G2)
[3] = molecular target: Ribosomal protein S6 kinase alpha-4 (Homo sapiens, UniProt O75676)
[4] = molecular target: Ribosomal protein S6 kinase alpha-1 (Homo sapiens, UniProt Q15418)
[5] = molecular target: Calcium/calmodulin-dependent protein kinase kinase 2 (Homo sapiens, UniProt Q96RR4)
[6] = molecular target: T1, Serine/threonine-protein kinase Nek3 (Homo sapiens, UniProt P51956)
T1 sequence (P51956 whole entry): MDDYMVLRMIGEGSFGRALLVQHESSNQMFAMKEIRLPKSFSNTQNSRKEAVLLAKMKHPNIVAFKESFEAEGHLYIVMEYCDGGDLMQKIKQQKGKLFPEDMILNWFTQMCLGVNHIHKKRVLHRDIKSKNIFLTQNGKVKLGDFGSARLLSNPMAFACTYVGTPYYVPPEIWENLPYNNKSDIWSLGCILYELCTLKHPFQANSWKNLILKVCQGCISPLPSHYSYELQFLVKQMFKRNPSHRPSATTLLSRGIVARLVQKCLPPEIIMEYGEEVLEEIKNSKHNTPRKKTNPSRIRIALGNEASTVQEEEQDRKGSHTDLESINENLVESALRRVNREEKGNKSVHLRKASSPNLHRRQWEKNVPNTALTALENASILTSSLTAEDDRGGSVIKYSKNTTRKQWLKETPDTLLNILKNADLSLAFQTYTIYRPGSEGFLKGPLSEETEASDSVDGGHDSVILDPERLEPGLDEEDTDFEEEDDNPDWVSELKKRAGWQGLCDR

[7] = molecular target: T2, Adenine phosphoribosyltransferase (Homo sapiens, UniProt P07741)
T2 sequence (P07741 whole entry): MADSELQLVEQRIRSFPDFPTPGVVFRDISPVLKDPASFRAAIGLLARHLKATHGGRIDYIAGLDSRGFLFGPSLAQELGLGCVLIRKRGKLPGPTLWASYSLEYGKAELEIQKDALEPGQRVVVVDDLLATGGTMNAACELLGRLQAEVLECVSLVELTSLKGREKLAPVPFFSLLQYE

[8] = molecular target: T3, EKC/KEOPS complex subunit TP53RK (Homo sapiens, UniProt Q96S44)
T3 sequence (Q96S44 whole entry): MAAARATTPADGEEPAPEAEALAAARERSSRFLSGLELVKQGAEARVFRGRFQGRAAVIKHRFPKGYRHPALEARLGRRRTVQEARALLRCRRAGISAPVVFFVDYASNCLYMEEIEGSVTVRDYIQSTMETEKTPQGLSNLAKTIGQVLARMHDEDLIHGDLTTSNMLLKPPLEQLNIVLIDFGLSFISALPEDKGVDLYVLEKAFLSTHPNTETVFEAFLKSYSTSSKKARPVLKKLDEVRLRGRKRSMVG

[9] = molecular target: Mitogen-activated protein kinase 7 (Homo sapiens, UniProt Q13164)
[10] = molecular target: Ephrin type-A receptor 4 (Homo sapiens, UniProt P54764)
[11] = molecular target: Tyrosine-protein kinase Fyn (Homo sapiens, UniProt P06241)
[12] = molecular target: Non-receptor tyrosine-protein kinase TYK2 (Homo sapiens, UniProt P29597)
[13] = molecular target: T4, ADP/ATP translocase 2 (Homo sapiens, UniProt P05141)
T4 sequence (P05141 whole entry): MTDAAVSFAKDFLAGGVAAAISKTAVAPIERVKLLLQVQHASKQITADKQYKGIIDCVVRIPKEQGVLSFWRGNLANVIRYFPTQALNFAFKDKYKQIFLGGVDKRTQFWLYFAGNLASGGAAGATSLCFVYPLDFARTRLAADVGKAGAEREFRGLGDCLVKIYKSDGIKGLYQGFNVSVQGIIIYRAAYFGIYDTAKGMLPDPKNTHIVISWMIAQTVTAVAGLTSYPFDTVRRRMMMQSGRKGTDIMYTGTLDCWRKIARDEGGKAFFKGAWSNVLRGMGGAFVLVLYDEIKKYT

[14] = molecular target: Ribosomal protein S6 kinase beta-1 (Homo sapiens, UniProt P23443)
[15] = molecular target: T5, Non-receptor tyrosine-protein kinase TNK1 (Homo sapiens, UniProt Q13470)
T5 sequence (Q13470 whole entry): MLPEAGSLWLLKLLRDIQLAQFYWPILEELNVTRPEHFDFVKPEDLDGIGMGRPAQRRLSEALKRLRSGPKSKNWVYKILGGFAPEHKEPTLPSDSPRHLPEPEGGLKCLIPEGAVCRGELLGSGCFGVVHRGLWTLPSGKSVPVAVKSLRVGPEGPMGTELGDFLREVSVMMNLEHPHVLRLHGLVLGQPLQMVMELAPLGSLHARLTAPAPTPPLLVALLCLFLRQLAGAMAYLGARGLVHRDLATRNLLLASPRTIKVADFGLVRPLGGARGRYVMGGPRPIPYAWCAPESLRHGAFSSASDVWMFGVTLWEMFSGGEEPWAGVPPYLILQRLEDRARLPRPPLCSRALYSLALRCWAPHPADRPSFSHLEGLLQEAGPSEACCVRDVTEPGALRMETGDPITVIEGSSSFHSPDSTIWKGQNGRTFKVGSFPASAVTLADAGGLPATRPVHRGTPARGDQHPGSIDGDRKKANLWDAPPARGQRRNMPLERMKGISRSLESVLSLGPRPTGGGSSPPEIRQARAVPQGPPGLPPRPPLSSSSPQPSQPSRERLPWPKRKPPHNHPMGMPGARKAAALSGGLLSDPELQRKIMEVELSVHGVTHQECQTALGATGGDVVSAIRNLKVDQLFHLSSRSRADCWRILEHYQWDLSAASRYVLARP

[16] = molecular target: Mitogen-activated protein kinase kinase kinase kinase 5 (Homo sapiens, UniProt Q9Y4K4)

Measured: Kd
Note: in the data inactive means no Kd found up to 30 µM.

Chain of Aurora kinase B (Q96GD4 whole entry): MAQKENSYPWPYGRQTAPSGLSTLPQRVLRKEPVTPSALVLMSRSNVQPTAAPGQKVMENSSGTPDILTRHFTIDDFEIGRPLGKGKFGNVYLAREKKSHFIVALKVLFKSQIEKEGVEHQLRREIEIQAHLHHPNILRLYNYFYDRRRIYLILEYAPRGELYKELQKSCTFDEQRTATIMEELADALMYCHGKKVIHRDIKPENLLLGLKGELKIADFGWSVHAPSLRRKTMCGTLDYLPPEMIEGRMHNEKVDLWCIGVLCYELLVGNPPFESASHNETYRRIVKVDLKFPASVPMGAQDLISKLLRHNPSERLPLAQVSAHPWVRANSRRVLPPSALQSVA
Chain of Non-receptor tyrosine-protein kinase TYK2 (P29597 whole entry): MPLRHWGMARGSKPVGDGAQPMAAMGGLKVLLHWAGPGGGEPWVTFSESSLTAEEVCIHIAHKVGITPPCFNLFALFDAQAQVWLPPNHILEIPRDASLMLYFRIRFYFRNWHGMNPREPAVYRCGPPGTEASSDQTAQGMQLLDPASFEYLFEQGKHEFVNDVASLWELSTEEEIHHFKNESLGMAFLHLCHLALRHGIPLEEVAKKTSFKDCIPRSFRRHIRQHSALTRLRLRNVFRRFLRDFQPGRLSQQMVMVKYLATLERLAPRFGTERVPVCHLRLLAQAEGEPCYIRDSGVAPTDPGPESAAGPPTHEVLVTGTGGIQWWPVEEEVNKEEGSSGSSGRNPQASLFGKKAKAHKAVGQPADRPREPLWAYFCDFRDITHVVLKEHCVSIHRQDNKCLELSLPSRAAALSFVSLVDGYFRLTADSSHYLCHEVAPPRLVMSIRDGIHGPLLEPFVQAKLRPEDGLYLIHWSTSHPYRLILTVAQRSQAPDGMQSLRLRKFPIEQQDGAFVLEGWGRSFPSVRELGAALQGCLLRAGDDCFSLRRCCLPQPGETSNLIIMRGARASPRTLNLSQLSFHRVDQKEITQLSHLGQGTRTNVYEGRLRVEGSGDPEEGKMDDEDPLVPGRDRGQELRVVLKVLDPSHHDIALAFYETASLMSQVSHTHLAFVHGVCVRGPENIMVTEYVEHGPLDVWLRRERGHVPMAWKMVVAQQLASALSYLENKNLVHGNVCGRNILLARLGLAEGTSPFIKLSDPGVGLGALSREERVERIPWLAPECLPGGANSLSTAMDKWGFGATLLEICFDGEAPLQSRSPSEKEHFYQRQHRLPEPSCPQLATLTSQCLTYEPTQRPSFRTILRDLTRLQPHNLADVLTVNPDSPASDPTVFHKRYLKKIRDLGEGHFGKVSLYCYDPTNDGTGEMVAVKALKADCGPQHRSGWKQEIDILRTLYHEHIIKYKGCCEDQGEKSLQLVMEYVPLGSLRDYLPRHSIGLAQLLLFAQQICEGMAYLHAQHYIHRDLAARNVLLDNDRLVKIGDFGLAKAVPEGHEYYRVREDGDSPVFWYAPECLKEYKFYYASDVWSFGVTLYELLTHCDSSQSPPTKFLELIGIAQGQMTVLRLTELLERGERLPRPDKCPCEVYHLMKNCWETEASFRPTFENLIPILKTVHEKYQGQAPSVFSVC
Chain of STE20-like serine/threonine-protein kinase (Q9H2G2 whole entry): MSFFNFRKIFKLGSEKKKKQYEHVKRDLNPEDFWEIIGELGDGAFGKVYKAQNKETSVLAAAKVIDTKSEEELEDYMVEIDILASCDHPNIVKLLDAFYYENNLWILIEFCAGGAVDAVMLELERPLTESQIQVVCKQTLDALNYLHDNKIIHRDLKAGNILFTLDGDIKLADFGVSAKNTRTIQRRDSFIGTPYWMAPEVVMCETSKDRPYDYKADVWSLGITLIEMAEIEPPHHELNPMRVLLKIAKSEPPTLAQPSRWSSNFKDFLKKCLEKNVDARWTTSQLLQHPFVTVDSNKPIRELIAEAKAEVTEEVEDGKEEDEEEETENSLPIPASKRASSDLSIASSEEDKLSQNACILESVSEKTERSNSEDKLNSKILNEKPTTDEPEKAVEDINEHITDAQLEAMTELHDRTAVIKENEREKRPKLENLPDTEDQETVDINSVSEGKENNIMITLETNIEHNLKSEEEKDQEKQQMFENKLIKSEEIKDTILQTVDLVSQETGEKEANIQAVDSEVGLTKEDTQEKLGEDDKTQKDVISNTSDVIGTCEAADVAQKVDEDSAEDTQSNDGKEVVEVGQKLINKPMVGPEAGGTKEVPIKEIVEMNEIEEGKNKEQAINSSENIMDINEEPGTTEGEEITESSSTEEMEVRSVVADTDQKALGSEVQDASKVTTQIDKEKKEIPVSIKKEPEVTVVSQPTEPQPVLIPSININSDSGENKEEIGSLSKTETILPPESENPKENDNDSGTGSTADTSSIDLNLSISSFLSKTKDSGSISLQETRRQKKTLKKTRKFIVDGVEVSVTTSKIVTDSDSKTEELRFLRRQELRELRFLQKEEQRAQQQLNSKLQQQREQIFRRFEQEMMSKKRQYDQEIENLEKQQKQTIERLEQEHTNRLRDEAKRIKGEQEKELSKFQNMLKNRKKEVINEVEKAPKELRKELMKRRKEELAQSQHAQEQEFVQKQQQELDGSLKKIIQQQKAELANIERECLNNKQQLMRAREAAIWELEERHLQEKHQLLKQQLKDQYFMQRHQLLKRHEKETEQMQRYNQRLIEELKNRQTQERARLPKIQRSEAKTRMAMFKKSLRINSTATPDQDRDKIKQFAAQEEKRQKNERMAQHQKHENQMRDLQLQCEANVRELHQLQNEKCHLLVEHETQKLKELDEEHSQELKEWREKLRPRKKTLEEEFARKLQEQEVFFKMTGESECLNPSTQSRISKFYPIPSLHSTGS
Chain of Ribosomal protein S6 kinase alpha-1 (Q15418 whole entry): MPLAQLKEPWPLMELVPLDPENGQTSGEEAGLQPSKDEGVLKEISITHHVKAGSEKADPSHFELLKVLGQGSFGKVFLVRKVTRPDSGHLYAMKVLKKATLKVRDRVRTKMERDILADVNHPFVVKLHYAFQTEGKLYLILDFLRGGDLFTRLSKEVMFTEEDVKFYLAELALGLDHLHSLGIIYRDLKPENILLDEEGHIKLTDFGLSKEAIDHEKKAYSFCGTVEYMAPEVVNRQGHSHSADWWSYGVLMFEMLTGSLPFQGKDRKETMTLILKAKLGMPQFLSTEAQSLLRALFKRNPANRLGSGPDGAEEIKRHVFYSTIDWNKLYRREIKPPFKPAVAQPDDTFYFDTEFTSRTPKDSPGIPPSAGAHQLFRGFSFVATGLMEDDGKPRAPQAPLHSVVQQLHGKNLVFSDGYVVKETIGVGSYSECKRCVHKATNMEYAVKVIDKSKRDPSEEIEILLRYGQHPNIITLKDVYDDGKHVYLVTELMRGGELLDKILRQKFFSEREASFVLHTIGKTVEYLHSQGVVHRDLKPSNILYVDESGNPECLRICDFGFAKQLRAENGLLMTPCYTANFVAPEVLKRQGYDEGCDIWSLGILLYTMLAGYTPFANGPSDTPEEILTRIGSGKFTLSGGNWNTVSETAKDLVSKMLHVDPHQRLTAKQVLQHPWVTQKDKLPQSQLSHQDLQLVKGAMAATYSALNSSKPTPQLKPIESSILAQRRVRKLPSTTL
Chain of Calcium/calmodulin-dependent protein kinase kinase 2 (Q96RR4 whole entry): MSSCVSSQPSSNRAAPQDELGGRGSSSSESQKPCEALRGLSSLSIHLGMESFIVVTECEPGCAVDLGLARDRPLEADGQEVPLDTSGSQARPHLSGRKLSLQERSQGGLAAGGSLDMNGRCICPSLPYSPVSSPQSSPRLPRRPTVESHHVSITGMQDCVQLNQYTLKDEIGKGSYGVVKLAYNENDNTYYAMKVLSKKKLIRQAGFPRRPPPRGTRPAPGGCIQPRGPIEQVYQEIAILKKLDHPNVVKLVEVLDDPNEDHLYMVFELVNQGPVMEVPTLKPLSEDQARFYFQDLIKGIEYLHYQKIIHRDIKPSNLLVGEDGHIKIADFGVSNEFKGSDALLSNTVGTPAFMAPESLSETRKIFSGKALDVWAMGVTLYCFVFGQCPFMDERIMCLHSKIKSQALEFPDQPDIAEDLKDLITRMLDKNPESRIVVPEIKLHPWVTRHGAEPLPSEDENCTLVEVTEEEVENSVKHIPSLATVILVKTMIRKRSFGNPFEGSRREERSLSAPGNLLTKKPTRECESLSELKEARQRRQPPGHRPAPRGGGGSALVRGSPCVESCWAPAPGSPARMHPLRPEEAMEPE
Chain of Ribosomal protein S6 kinase alpha-4 (O75676 whole entry): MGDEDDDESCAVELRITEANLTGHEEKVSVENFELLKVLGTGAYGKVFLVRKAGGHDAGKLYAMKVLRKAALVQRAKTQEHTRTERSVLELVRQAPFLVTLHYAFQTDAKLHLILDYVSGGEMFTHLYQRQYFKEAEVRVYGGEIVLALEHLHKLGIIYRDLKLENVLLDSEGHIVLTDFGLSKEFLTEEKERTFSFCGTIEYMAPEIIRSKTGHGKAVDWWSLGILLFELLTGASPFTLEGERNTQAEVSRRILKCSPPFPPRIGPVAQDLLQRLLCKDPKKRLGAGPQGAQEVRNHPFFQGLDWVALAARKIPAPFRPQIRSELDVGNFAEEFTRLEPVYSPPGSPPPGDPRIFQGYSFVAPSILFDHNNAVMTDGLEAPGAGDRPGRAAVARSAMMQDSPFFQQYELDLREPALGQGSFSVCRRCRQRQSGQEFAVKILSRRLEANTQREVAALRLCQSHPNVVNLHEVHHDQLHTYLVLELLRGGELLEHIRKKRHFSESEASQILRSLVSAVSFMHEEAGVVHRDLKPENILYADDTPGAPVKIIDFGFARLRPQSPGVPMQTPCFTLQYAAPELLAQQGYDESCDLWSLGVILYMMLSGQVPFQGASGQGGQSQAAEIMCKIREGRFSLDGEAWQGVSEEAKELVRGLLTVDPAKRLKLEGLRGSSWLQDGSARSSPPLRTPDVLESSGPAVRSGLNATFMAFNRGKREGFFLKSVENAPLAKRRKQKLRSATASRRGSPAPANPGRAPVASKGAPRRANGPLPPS

CC(C)CC(=O)Nc1[nH]nc2c1CN(C(=O)C1CCN(C)CC1)C2(C)C [PHA-793887]
inactive: [1] > 30 µM | [2] > 30 µM | [3] > 30 µM | [4] > 30 µM | [5] > 30 µM | [6] > 30 µM | [7] > 30 µM | [8] > 30 µM | [9] > 30 µM | [10] > 30 µM | [11] > 30 µM | [12] > 30 µM | [13] > 30 µM | [14] > 30 µM | [15] > 30 µM | [16] > 30 µM
